Measurements taken from the supplement of paper PMC10307832.

Key:
Assay in all cases: relative viability (nuclei count vs DMSO), 5 days (fraction); higher = more cells survive
[1] = compound: CC(O)(CS(=O)(=O)c1ccc(F)cc1)C(=O)Nc1ccc(C#N)c(C(F)(F)F)c1 [Bicalutamide] + COc1cccc2cc(-c3nc([C@H]4CC[C@H](C(=O)O)CC4)n4ncnc(N)c34)[nH]c12 [OSI-027] (partner 0.5 µM)
Summary of the method: (§1)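 Cells from lung cancer lines were seeded into 1536-well plates and, one day later, dosed by pin tool. Treatments were either a single drug or a fixed dose of an anchor drug with five library-drug doses (not always all listed) in √10 steps. After 5 days, nuclei were stained in a one-step fixation (final 0.05% Triton X-100, 1% formaldehyde, 1 ug/ml Hoechst) and counted on 4× images, and relative viability is the treated-to-vehicle nuclei ratio, as the median of duplicate plates.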

[2] = compound: CC(O)(CS(=O)(=O)c1ccc(F)cc1)C(=O)Nc1ccc(C#N)c(C(F)(F)F)c1 [Bicalutamide] + CS(=O)(=O)CCNCc1ccc(-c2ccc3ncnc(Nc4ccc(OCc5cccc(F)c5)c(Cl)c4)c3c2)o1 [Lapatinib] (partner 2 µM)
Summary of the method: as §1

[3] = compound: CC(O)(CS(=O)(=O)c1ccc(F)cc1)C(=O)Nc1ccc(C#N)c(C(F)(F)F)c1 [Bicalutamide] + Nc1nc2[nH]cc(CCc3ccc(C(=O)N[C@@H](CCC(=O)O)C(=O)O)cc3)c2c(=O)[nH]1 [Pemetrexed] (partner 0.2 µM)
Summary of the method: as §1

[4] = compound: C(C(=O)C(=O)O)Br [Bromopyruvate] + COc1cc2c(Oc3ccc(NC(=O)C4(C(=O)Nc5ccc(F)cc5)CC4)cc3F)ccnc2cc1OCCCN1CCOCC1 [Foretinib] (partner 0.25 µM)
Summary of the method: as §1

Cell Line	relative viability ([1]; first compound 0.08 µM)	relative viability ([1]; first compound 0.253 µM)	relative viability ([1]; first compound 0.8 µM)	relative viability ([1]; first compound 2.53 µM)	relative viability ([2]; first compound 0.08 µM)	relative viability ([2]; first compound 0.253 µM)	relative viability ([2]; first compound 0.8 µM)	relative viability ([2]; first compound 2.53 µM)	relative viability ([3]; first compound 0.08 µM)	relative viability ([3]; first compound 0.253 µM)	relative viability ([3]; first compound 0.8 µM)	relative viability ([3]; first compound 2.53 µM)	relative viability ([4]; first compound 1 µM)	relative viability ([4]; first compound 3.162 µM)	relative viability ([4]; first compound 10 µM)	relative viability ([4]; first compound 31.62 µM)	relative viability ([4]; first compound 100 µM)
201T	0.727	0.609	0.735	0.736	1.07	0.95	1.06	1.02	0.306	0.33	0.328	0.36	1.15	1.08	1.29	1.21	1.29
A549					1.12	0.959	1.04	0.778					0.949	0.935	1.07	0.989	1.06
A-427	0.489	0.479	0.584	0.398	0.945	1.08	1.19	1.1	0.986	0.968	1.11	0.913	0.983	1.21	1.18	0.799	0.885
ABC-1	0.46	0.448	0.45	0.454	1.45	1.06	1.26	1.28					1.09	0.941	1.14	0.833	0.95
BEN	0.265	0.299	0.274	0.276	0.674	0.589	0.984	0.858	0.854	0.74	1.15	0.837	0.975	0.668	0.542	0.741	0.591
CAL-12T	0.574	0.638	0.72	0.431	0.809	0.661	0.891	0.581	1.34	1.06	1.28	1.14	1.14	1.05	1.09	1.07	1.06
COR-L23	0.814	0.751	0.955	0.705	0.941	0.921	1.2	0.998	0.204	0.203	0.184	0.196	0.905	0.914	1.02	0.971	0.434
COR-L 105	0.644	0.555	0.614	0.572	0.333	0.353	0.39	0.311	1.25	1.19	1.08	1.05	0.924	1.18	0.995	1.08	0.616
Calu-6					1.16	1.01	1.12	1.08					0.9	0.891	0.938	0.856	0.613
ChaGo-K-1	0.566	0.48	0.631	0.516					0.256	0.252	0.251	0.247	0.898	0.937	1.15	1.02	0.998
EBC-1					0.209	0.206	0.211	0.214					0.1	0.107	0.102	0.112	0.0941
EKVX	0.747	0.631	0.739	0.718	0.194	0.247	0.192	0.207	0.378	0.335	0.392	0.391	0.83	0.779	0.929	0.819	1.34
EMC-BAC-2	0.404	0.374	0.364	0.246	0.85	0.735	0.912	0.833	0.447	0.41	0.489	0.444	0.964	0.979	1.06	0.933	1.1
EPLC-272H	0.314	0.34	0.325	0.243	0.788	0.771	0.92	0.875	0.424	0.322	0.359	0.207	0.777	0.718	0.81	0.688	0.888
H3255	0.525	0.591		0.498	0.112	0.239	0.315	0.198	0.584	0.536	0.62	0.571	0.902	0.806	0.93	0.938	0.922
HARA	0.633	0.361	0.744	0.483	0.841	0.514	0.904	0.701	0.233		0.299	0.251	0.91	0.868	0.984	0.824	0.93
HCC-15	0.71	0.612	0.908	0.571	0.797	0.813	0.966	0.875	0.23	0.231	0.221	0.223	1	1.05	1.07	1.08	1.02
HCC-44	0.723	0.403	0.66	0.477	1.05	0.987	1.12	1.05	0.675	0.707	0.637	0.688					
HCC-78	0.381	0.371	0.43	0.352	0.74	0.977	0.91	0.682	0.947	0.708	0.962	0.939	0.55	0.533	0.589	0.539	0.532
HCC-366	0.955	0.848	1.08	0.718	1.09	1.05	1.12	1	0.16	0.189	0.191	0.163	0.927	0.976	0.961	0.759	0.963
HCC-827	0.795	0.697	0.86	0.751	0.171	0.178	0.171	0.193	0.261	0.218	0.289	0.306	1.05	1.02	1.02	1.08	1.08
